Laboratory results as given in US9738626B2, “Antagonists of prostaglandin EP3 receptor” (Pfizer Inc., priority 2014, dated 2017).

What was measured:
human EP3 receptor = human EP3 receptor (Homo sapiens (Human), UniProt P43115); assay: EP3 Radioligand SPA Binding Assay; details: [3H]-PGE2 displacement, Millipore EP3 Chem1 membranes; geometric mean; Ki from IC50 by Cheng-Prusoff
Experimental: To measure the ability of test compounds in the present invention to bind to the human EP3 receptor, and therefore have the potential to antagonize PGE2 activity, radioligand displacement assays were performed. Compound affinity was expressed as a Ki value, defined as the concentration of compound required to decrease [^3H] PGE2 binding by 50% for a specific membrane batch at a given concentration of radioligand.
Test compounds were half log serially diluted in 100% DMSO (J. T. Baker #922401). 1 μL of each compound was added to appropriate wells of a 384-well plate (Matrix Cat #4322). Unlabeled PGE2 (Tocris Cat #2296) at a final concentration of 1 μM was used to determine non-specific binding. 1 μL of 100% DMSO (J. T. Baker #922401) was used to determine total binding. Millipore EP3 Chem1 membranes (prepared in-house from cell paste derived from the Millipore ChemiSCREEN™ Human Recombinant EP3 Prostanoid Receptor Calcium-Optimized Stable Cell Line (Millipore Cat # HTS092C, http://www.millipore.com/catalogue/item/hts092c)) were thawed and diluted in binding buffer (50 mM Hepes pH 7.4 (Lonza Cat #17-737), 5 mM MgCl2 (Sigma-M1028), and 0.1% BSA (Sigma A-7409)) to a final concentration of 1 μg/25 μL. 25 μL of diluted membranes were added to prepared compound plates. WGA coated PVT SPA Beads (Perkin Elmer Cat # RPNQ0060) were diluted in binding buffer to a concentration of 4 μg/ul, and 25 μL of the SPA bead mixture was then added to each well for a final assay concentration of 100 μg/well. [^3H]-PGE2 (Perkin Elmer Cat #NET428) was diluted in binding buffer to a concentration of […], and […] was added to all wells for a final assay concentration of 1.125 nM. Plates were incubated for 30 minutes at r.t. (approximately 25° C.) with shaking. Radioactivity associated with each well was measured after a 10 hour incubation using a Wallac Trilux MicroBeta plate-based scintillation counter and a normalized protocol at 1 minute read/well. The Kd for [^3H]-PGE2 was determined by carrying out saturation binding, with data analysis by non-linear regression, fit to a one-site hyperbola (GraphPad Prism®). IC50 determinations were made from competition curves, analyzed with a proprietary curve fitting program (SIGHTS), similar to GraphPad PRISM® and a 4-parameter logistic dose response equation. Ki values were calculated from IC50 values, using the Cheng-Prusoff equation.
Table 5 below provides the Ki values of Examples for the binding affinity against human EP3 in accordance with the above-described assay. Results are reported as geometric mean Ki values, where the example is identified as a free base or designated salt that is made as a solution for the experiment and N is the number of samples tested for that example and is the sum of the forms identified with the corresponding number of the respective form in parentheses.

[1] = target: human prostaglandin E3 receptor (EP3) (Homo sapiens (Human), UniProt P43115); assay: Functional activity: cellular cAMP HTRF assay, antagonism of sulprostone; type: cell-based; details: CHO-K1 cells expressing human EP3; cAMP with 10 nM sulprostone and forskolin; geometric mean
Experimental: The functional activity of two Examples was determined by measuring the effect on cellular cAMP levels, under conditions whereby antagonism of the EP3 receptor could be measured. Compound activity was expressed as an IC50 value, defined as the concentration of compound required to decrease agonist (sulprostone) activity by 50%. CHO-K1 cells expressing human prostaglandin E3 receptor (EP3, DiscoveRx #95-0159C2) were maintained in Ham's F-12 Nutrient Mixture (Invitrogen #11765-054) containing L-Glutamine (Gibco #25030-081), Geneticin (Gibco #10131-027), Pen Strep (Gibco #15070-063) and 10% heat-inactivated fetal bovine serum (Sigma #F4135). […] Cellular cAMP levels were determined using a Homogeneous Time-Resolved Fluorescence (HTRF) cAMP detection kit (cAMP HI-Range Assay Kit; CisBio #62AM6PEJ). […] The assay plates were then held at r.t. and after 60 minutes, changes in the HTRF signal were read with an Envision 2104 multi-label plate reader using excitation of 330 nm and emissions of 615 and 665 nm. Raw data were converted to nM cAMP by interpolation from a cAMP standard curve (as described in the cAMP detection kit protocol) and IC50 determinations were made from the response curves analyzed with a curve fitting program, similar to GraphPad PRISM® and using a 4-parameter logistic dose response equation. […]

Chain of human EP3 receptor (P43115 whole entry): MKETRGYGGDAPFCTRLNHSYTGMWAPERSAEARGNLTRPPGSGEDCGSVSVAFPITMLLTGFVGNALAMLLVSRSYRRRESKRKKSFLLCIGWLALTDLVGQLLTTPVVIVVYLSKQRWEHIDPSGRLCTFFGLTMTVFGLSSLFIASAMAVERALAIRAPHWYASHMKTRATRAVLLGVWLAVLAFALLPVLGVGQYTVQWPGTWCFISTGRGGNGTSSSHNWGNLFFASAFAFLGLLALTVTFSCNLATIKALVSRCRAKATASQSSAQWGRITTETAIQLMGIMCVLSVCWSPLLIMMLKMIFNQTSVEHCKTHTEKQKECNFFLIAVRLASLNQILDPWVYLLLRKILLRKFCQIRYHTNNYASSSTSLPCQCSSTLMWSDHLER
Chain of human prostaglandin E3 receptor (EP3) (P43115 whole entry): as above

Row | Structure (SMILES) | Ki (human EP3 receptor) [nM] | IC50 [1] [nM]
1 | Cc1cccc2ncc(-c3ccc([C@@]4(C)CCCNC4=O)c(=O)[nH]3)cc12 [Example 1, (R)-3-(3-Methyl-2-oxopiperidin-3-yl)-6-(5-methylquinolin-3-yl)pyridin-2(1H)-one] | 3.3 | 30.8
2 | Cc1cc(-c2ccc([C@@]3(C)CCCNC3=O)c(=O)[nH]2)cc2ncccc12 [Example 2, (R)-3-(3-Methyl-2-oxopiperidin-3-yl)-6-(5-methylquinolin-7-yl)pyridin-2(1H)-one] | 7.2 | 
3 | CCc1cc(-c2ccc([C@@]3(C)CCCNC3=O)c(=O)[nH]2)cc2ncccc12 [Example 3, (R)-6-(5-Ethylquinolin-7-yl)-3-(3-methyl-2-oxopiperidin-3-yl)pyridin-2(1H)-one] | 4.6 | 
4 | C[C@]1(c2ccc(-c3cc(Cl)c4cccnc4c3)[nH]c2=O)CCCNC1=O [Example 4, (R)-6-(5-Chloroquinolin-7-yl)-3-(3-methyl-2-oxopiperidin-3-yl)pyridin-2(1H)-one] | 8.9 | 
5 | C[C@]1(c2ccc(-c3cc(C4CC4)c4cccnc4c3)[nH]c2=O)CCCNC1=O [Example 5, (R)-6-(5-Cyclopropylquinolin-7-yl)-3-(3-methyl-2-oxopiperidin-3-yl)pyridin-2(1H)-one] | 7.3 | 
6 | C[C@]1(c2ccc(-c3cc(F)c4cccnc4c3)[nH]c2=O)CCCNC1=O [Example 6, (R)-6-(5-Fluoroquinolin-7-yl)-3-(3-methyl-2-oxopiperidin-3-yl)pyridin-2(1H)-one] | 48.6 | 
7 | Cc1cccc2ncc(-c3ccc([C@@]4(C)CCNC4=O)c(=O)[nH]3)cc12 [Example 7, (R)-3-(3-Methyl-2-oxopyrrolidin-3-yl)-6-(5-methylquinolin-3-yl)pyridin-2(1H)-one] | 18.6 | 34.1
